Read-outs that look alike come from different tables or passages of the source.
Legend:
[1] = test system: human promyelocytic leukemia HL-60 cells; test: Cytotoxicity, MTT method, HL-60 cells; type: cell-based; details: for CC50: Homo sapiens, read-out: CC50 HL-60; for SI (selectivity index) HL-60: average CC50 non-malignant cells / CC50 HL-60
Procedure: (§1) Human promyelocytic leukemia [HL-60 (RCB3683)] (purchased from Riken Cell Bank, Tsukuba, Japan) was cultured at 37 °C in RPMI1640 medium (Fujifilm Wako Pure Chemical Co., Osaka, Japan) supplemented with 10% heat (56 °C, 30 min) inactivated FBS (Sigma-Aldrich Inc. St. Louis, MO, USA), 100 U/mL penicillin G, and 100 µg/mL streptomycin sulfate in a humidified 5% CO2 incubator (MCO-170 AICUVD-P, Panasonic Healthcare Co., Ltd., Gunma, Japan). Human oral squamous cell carcinoma (OSCC) cell lines derived from tongue [HSC-2 (RCB1945), HSC-3 (RCB1975), HSC-4 (RCB1902)] (Riken Cell Bank), and human normal oral cells (gingival fibroblasts, HGF; pulp cell, HPC; periodontal ligament fibroblast, HPLF), established from the first premolar extracted tooth in the lower jaw and periodontal tissues of a child, according to the guidelines of Meikai University Ethic Committee (No. A0808), were cultured in DMEM medium (Fujifilm Wako Pure Chemical Co.) supplemented with 10% FBS and antibiotics. The compounds in Series 2–4 were evaluated against HL-60, HSC-2, HSC-3, HSC-4, HGF, HPC, and HPLF cells based on a literature procedure, as described previously. In brief, near confluent cells were incubated in triplicate for 48 h at 37 °C with different concentrations ([…], 6.3, 12.5, 25, 50, 100 µM) of the compounds; then, viable cell numbers were measured using the MTT method. From the dose–response curve, a 50% cytotoxic concentration (CC50) was determined. All samples were dissolved in dimethylsulfoxide (DMSO). The toxicity of DMSO alone was calculated and subtracted. The CC50 values were determined from dose–response curves.

[2] = test system: human oral squamous cell carcinoma HSC-2 cells; test: Cytotoxicity, MTT method, HSC-2 cells; type: cell-based; details: for CC50: Homo sapiens, read-out: CC50 HSC-2; for SI (selectivity index) HSC-2: average CC50 non-malignant cells / CC50 HSC-2
Procedure: as §1

[3] = test system: human oral squamous cell carcinoma HSC-3 cells; test: Cytotoxicity, MTT method, HSC-3 cells; type: cell-based; details: for CC50: Homo sapiens, read-out: CC50 HSC-3; for SI (selectivity index) HSC-3: average CC50 non-malignant cells / CC50 HSC-3
Procedure: as §1

[4] = test system: human oral squamous cell carcinoma HSC-4 cells; test: Cytotoxicity, MTT method, HSC-4 cells; type: cell-based; details: for CC50: Homo sapiens, read-out: CC50 HSC-4; for SI (selectivity index) HSC-4: average CC50 non-malignant cells / CC50 HSC-4
Procedure: as §1

[5] = Cytotoxicity, MTT method, HGF non-malignant cells; type: cell-based, human; details: human, gingival fibroblasts (HGF), non-malignant, mean ± SD
Procedure: as §1

[6] = Cytotoxicity, MTT method, HPC non-malignant cells; type: cell-based, human; details: human, pulp cells (HPC), non-malignant, mean ± SD
Procedure: as §1

[7] = Cytotoxicity, MTT method, HPLF non-malignant cells; type: cell-based, human; details: human, periodontal ligament fibroblasts (HPLF), non-malignant, mean ± SD
Procedure: as §1

[8] = test system: human tumour cell lines HL-60, HSC-2, HSC-3, HSC-4; test: Cytotoxicity, average over the four human tumour cell lines; type: cell-based; details: for CC50: Homo sapiens, read-out: AVE. CC50, human tumour cell lines; for AVE SI: average of the four SI values
Procedure: as §1

[9] = Cytotoxicity, average over the three human normal cells; type: cell-based; details: human, average of HGF, HPC, HPLF; read-out: AVE CC50, human normal cells
Procedure: as §1

caspases-3 and -7 = test: Caspase-Glo 3/7 assay in HSC-2 cells; type: cell-based, human; details: 0.5 µM, 24 h
Procedure: Both 3b (0.5 µM) and 3c (0.5 µM) were examined for their ability to activate caspases-3 and -7 in HSC cells. This determination was accomplished using the Caspase-Glo 3/7 assay (Promega Corporation, Madison, WI, USA). In brief, this assay uses a tetrapeptide sequence DEVD, which is optimized for caspase and luciferase activities. The cell lysate was incubated with the Caspase-Glo reagent (buffer and substrate) for 1 h and the luminescence was measured. The resultant luminescent signal produced by luciferase was confirmed to be proportional to the amount of caspase-3 and -7 activity.

PARP1 = PARP1 cleavage, western blot in HSC-2 cells; type: cell-based, human; details: 0.5 µM, 24 h
Procedure: (§2) Antibodies against cleaved PARP1, bim, bax, puma, and bak were obtained from Cell Signaling Technology (Beverley, MA, USA) while the anti-actin antibody was purchased from Santa Cruz Biotechnology (Santa Cruz, CA, USA).
(§3) The HSC-2 cells were cultured for 24 h and, then, treated with 0.5 µM of 3b or 3c for 24 h. The cells were scraped and collected in lysis buffer (purchased from Cell Signaling Technology), which contained 1 mM of phenylmethanesulfonyl fluoride and one tablet of protease inhibitor cocktail (Complete, EDTA-free; Roche Diagnostics, Mannheim, Germany). The proteins were subjected to 8% SDS-polyacrylamide gel electrophoresis and, then, transferred to a polyvinylidene difluoride membrane saturated with 5% nonfat dry milk. The membranes were incubated with rabbit monoclonal anti-cleaved PARP (Cell Signaling Technology, Beverly, MA, USA; #9541, 1:1000), or beta-actin antibody (Sigma-Aldrich, St Louis, MO, USA; A5441, 1:10,000) for 1 h at room temperature. The membranes were washed with Tris-buffered saline containing 0.1% Tween 80. And, the secondary antibodies were horseradish peroxidase-conjugated goat antimouse or antirabbit, which reacted with the chemoluminescent substrate system and were exposed to X-ray films.

HSC-2 cells = test: Cell cycle analysis of HSC-2 cells; type: cell-based, human; details: 0.5 µM, 24 h
Procedure: The effect of 3b (0.5 µM) and 3c (0.5 µM) on the phase distribution of HSC-2 cells after 24 h of incubation was determined using the protocol of a manufacturer (BD Pharmingen, BD BioSciences, San Jose, CA, USA). In brief, treated and untreated cells were suspended at a density of ~1 × 10^6 cells/mL in cooled phosphate-buffered saline (PBS) without calcium and magnesium ions and fixed with 70% ethanol overnight at −20 °C. The cells were washed with cooled PBS and re-suspended in a propidium iodide/RNase staining buffer in the dark at room temperature for 0.25 h. Both acquisition and analysis were performed using EPICS ALTRA (Beckman Coulter, Brea, CA, USA) and EXPO 32 software.

bim, bax, puma, and bak = test: Pro-apoptotic proteins bim, bax, puma, bak in HSC-2 cells; type: cell-based, human; details: 24 h, data not shown
Procedure: as §2, §3

HCT116 cells [10] = test: Mitochondrial membrane potential determination in HCT116 cells; type: cell-based, human; details: 48 h, tetramethylrhodamine ethyl ester
Procedure: The determination of the IC50 values of 3b, 3c, and 5-FU on the mitochondrial membrane potential in HCT 116 cells was undertaken using a literature procedure. In brief, the cells were incubated at 37 °C in an atmosphere of 5% carbon dioxide for 24 h. The compounds were dissolved in DMSO, added to the cells, and incubated for 48 h. Then, […], and 2,4-dinitrophenol (DNP) were added to the cells, which were incubated for 0.5 h. After the addition of tetramethylrhodamine ethyl ester, the fluorescence of the cells was determined using a plate reader.

HCT116 cells [11] = test: Reactive oxygen species determination in HCT116 cells; type: cell-based, human; details: 48 h, dichlorofluorescein fluorescence
Procedure: The determination of the effects of 3b, 3c, and 5-FU on the generation of reactive oxygen species in HCT 116 cells was accomplished using a literature procedure. In brief, the cells were incubated at 37 °C in an atmosphere of 5% carbon dioxide for 24 h. Subsequently, solutions of the compounds in DMSO were added to the cells, which were incubated for 48 h. After 2′,7′-dichlorofluorescein was added to the cells, incubation continued for another 0.5 h and the fluorescence of the cells was measured spectrophotometrically (excitation wavelength 485 nm; emission wavelength, 530 nm).

[12] = test system: human gingival fibroblasts (HGF); test: Cytotoxicity, MTT method, HGF non-malignant cells; type: cell-based; details: 48 h, mean ± SD
Procedure: as §1

human pulp cells (HPC) = test: Cytotoxicity, MTT method, HPC non-malignant cells; type: cell-based; details: 48 h, mean ± SD
Procedure: as §1

[13] = test system: human periodontal ligament fibroblasts (HPLF); test: Cytotoxicity, MTT method, HPLF non-malignant cells; type: cell-based; details: 48 h, mean ± SD
Procedure: as §1

[14] = test system: human normal cells HGF, HPC, HPLF; test: Cytotoxicity, average over the three human normal cells; type: cell-based; details: average of HGF, read-out: AVE CC50, human normal cells
Procedure: as §1

Compound: O=C1/C(=C/c2ccc(Cl)cc2)CN(C(=O)CC(=O)N2C/C(=C\c3ccc(Cl)cc3)C(=O)/C(=C/c3ccc(Cl)cc3)C2)C/C1=C\c1ccc(Cl)cc1 [Compound 3c]
- CC50 ([1]; HL-60, 48 h, MTT, mean ± SD): 5 ± 0.76 µM
- SI (selectivity index) HL-60 [1]: 8.26
- CC50 ([2]; HSC-2, 48 h, MTT, mean ± SD): 5.5 ± 0.65 µM
- SI (selectivity index) HSC-2 [2]: 7.51
- CC50 ([3]; HSC-3, 48 h, MTT, mean ± SD): 13 ± 2.2 µM
- SI (selectivity index) HSC-3 [3]: 3.18
- CC50 ([4]; HSC-4, 48 h, MTT, mean ± SD): 5.5 ± 0.96 µM
- SI (selectivity index) HSC-4 [4]: 7.51
- CC50 at 48 h [5]: 41 ± 2.5 µM
- CC50 at 48 h [6]: 38 ± 8.7 µM
- CC50 at 48 h [7]: 45 ± 11 µM
- CC50 ([8]; average of HL-60, HSC-2, HSC-3, HSC-4): 7.25 µM
- AVE SI [8]: 6.62
- CC50 at 48 h [9]: 41.3 µM
- Induction of caspases-3 and -7 (caspases-3 and -7): does not exert these effects
- Cleavage of PARP1 (PARP1): does not exert these effects
- Cell cycle effect (HSC-2 cells): does not exert these effects
- Effect on pro-apoptotic proteins bim, bax, puma, bak (bim, bax, puma, and bak): no changes in the concentrations of these proteins were observed
- Effect on mitochondrial membrane potential (MMP) (HCT116 cells [10]): no effect at the concentrations utilized
- Generation of reactive oxygen species (ROS) (HCT116 cells [11]): cause an increase in the ROS concentrations

Compound: N[C@@H](Cc1ccc(N(CCCl)CCCl)cc1)C(=O)O [Melphalan, reference compound]
- CC50 ([1]; HL-60, 48 h): 0.89 ± 0.17 µM
- SI (selectivity index) HL-60 [1]: 75.6
- CC50 ([2]; HSC-2, 48 h): 12 ± 2.7 µM
- SI (selectivity index) HSC-2 [2]: 5.61
- CC50 ([3]; HSC-3, 48 h): 46 ± 31 µM
- SI (selectivity index) HSC-3 [3]: 1.46
- CC50 ([4]; HSC-4, 48 h): 46 ± 6 µM
- SI (selectivity index) HSC-4 [4]: 1.46
- CC50 [12]: 73 ± 15 µM
- CC50 (human pulp cells (HPC)): 37 ± 7.3 µM
- CC50 [13]: 92 ± 7.8 µM
- CC50 [8]: 26.2 µM
- AVE SI [8]: 21.0
- CC50 at 48 h [9]: > 50 µM
- CC50 [14]: 67.3 µM

From PMC10821124, “Dimeric 3,5-Bis(benzylidene)-4-piperidones: Tumor-Selective Cytotoxicity and Structure-Activity Relationships” (Medicines, 2024)
